We go through one compound from patent US10633675B2, “Microbial engineering for the production of chemical and pharmaceutical products from the isoprenoid pathway” (priority 2009, dated 2020).

Test [1] relates to taxadiene synthesis by strain 26. The test can be described thus: Effect of externally-introduced indole on taxadiene production. The class given is cell-based, E. coli. From the text: (§1) FIGS. 15A-15C. Impact of metabolite byproduct Indole accumulation on taxadiene production and growth. […] Strains 26 to 28 and 30 to 32, all with chromosomally integrated upstream pathway expression, were chosen for consistent comparison. The two sets of strains differ only in the expression of the downstream pathway with the second set (30 to 32) having twice the level of expression of the first. In strains 26 to 28 and 30 to 32, upstream expression increased by changing the promoters from Trc, to T5 and T7, respectively. […] The fold improvements are relative to strain 25 and 29, respectively, for the two sets. […] Different concentrations of indole were introduced into cultures of cells cultured in minimal media with 0.5% yeast extract. […] Data are mean+/−SD for three replicates. Strains devoid of the downstream pathway and with different strengths of the upstream pathway (1, 2, 6, 21, 40 and 100) were selected.

Test [2] concerns engineered strains of E. coli. Description: Effect of externally-introduced indole on cell growth. The class given is cell-based.
Description: as §1

Take `c1ccc2[nH]ccc2c1` [indole]: the “exogenous indole level at which taxadiene synthesis is severely inhibited” value in test [1] (exogenous indole (FIG. 15B)) is given as greater than 100 mg/L. The “effect on taxadiene production” value in test [1] (indole concentration increased from 50 mg/L to 100 mg/L, minimal media with 0.5% yeast extract (FIG. 15B)) is “significantly reduced”. In addition, the “effect on cell growth” value in test [2] (further increasing the indole concentration, level of inhibition very strain dependent (FIG. 15C)) was “inhibited cell growth”. The “effect on cell growth of strain 26 compared with strains devoid of the downstream pathway” value in test [2] (strain 26, the high taxadiene producer (FIG. 15C)) is “strongest inhibition”.
